Assays:
human D4.2 receptor = molecular target: T1, human D4.2 receptor (Homo sapiens, UniProt P21917, DEL265-296); experiment: radioligand binding to dopamine receptor D4.2 ([3H] Spiperone); details: 10 μM ligand
T1 sequence (P21917 with tags, fused parts or gaps DEL265-296): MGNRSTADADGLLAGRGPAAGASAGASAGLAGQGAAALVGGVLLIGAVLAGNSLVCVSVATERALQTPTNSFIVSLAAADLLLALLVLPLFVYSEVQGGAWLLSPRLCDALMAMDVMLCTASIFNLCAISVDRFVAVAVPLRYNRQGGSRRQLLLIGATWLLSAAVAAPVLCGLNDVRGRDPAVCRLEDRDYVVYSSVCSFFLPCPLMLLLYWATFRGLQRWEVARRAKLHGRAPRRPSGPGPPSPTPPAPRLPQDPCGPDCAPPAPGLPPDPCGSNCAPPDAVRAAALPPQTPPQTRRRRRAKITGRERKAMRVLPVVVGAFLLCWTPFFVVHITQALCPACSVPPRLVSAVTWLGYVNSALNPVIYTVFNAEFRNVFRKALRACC
Protocol: Screening of the disclosed compounds for potential ability to interact with dopamine receptor D4.2 is carried out by method of radioligand binding. […] From the cells transfected in this way membrane species are prepared by homogenization of these cells in glass homogenizer with the subsequent separation of plasmatic membranes from cell nuclei, mitochondrias and cell wreckages by differential centrifugation. […] After incubation samples are filtered in vacuo on glass-microfiber filters G/F (Millipor, USA), filters are washed three times with cold solution of medium and radioactivity is measured by scintillation counter MicroBeta 340 (Perkin Elmer, USA). Nonspecific binding which makes up 10% of the overall binding is determined by incubation of membrane species with radioligand in the presence of 10 μM of Haloperidol.
Spiperone is used as positive control. Tested compounds' binding to the receptor is determined by their ability to displace radioligand and expressed in percent of displacement (% I). Values of % I are calculated according to the following equation:
wherein: TA—is overall radioactivity in the presence of radioligand only, CA—is radioactivity in the presence of radioligand and tested compound and NA—is radioactivity in the presence of radioligand and Haloperidol (10 μM).

mice = experiment: Mice Training in Morris Water Maze (Scopolamine); type: in vivo; details: unitary introduction of active ingredient
Protocol: Mice Training in Morris Water Maze. A round pool which was filled with water at 20-22° C. was used. A round ceramic platform of 14 cm height was placed in the pool. Animals's behavior was registered with automated computer videosystem in combination with software package of movement analysis Any-maze (Stoelting Co., US). Before testing mice suitable for training were selected. That was done by placing the platform 1 cm above the water level and putting an animal on the platform for 20 seconds. Then the mouse was sunk into the water on the opposite side of the pool, allowed to find the platform and climbed it within 60 seconds, where it was left for additional 20 seconds. After that the mouse was repeatedly immersed into water on the opposite side of the pool and allowed to look for platform. If it failed in finding the platform within 60 seconds the experimentator helped it to find the platform and climb it. If the mice could not find the platform itself in two consecutive attempts it was excluded from experiment.
During the next two days the platform was placed 0.5 centimeter lower the water level. Every day the mice were given four attempts for finding the platform within 60 seconds. The time interval between the attempts was 20 seconds, during which the mice stayed on the platform. Every day before the first attempt mouse was placed on the platform for 20 seconds. The time needed for finding and climbing the platform was registered. The animals were sunk in water in 3 different places on the side of the pool opposite to platform. On each day of two-day testing 35-40 minutes before the beginning of training the mice were injected intraintestinally with physiological solution, Scopolamine or Scopolamine in combination with investigated compound. At least 8 animals were used in each group.
On the third day the platform was removed and each animal was placed one time in the pool for a period of 60 seconds. The time each mouse spent in the area where the platform had been located during the previous days was registered. This time interval was regarded as a measure of effectiveness of training fulfilled during the previous two days. The testing was carried out during the day time in isolated laboratory using “white noise” at level of about 70 decibel above the human hearing threshold.

Row | SMILES | Dopamine receptor D4.2, % inhibition (human D4.2 receptor) | memory disorders caused by Scopolamine in Morris water maze (mice)
1 | Cc1ccc2c(c1)[C@H]1CN(C)CCC[C@@H]1N2CCc1cccnc1 [1.6.2(10)•3HCl] | 5% | 
2 | Cc1ccc2c(c1)c1c(n2CCc2ccccn2)CCN(C)C1.Cl.Cl [1.1.2(2-3)•2HCl] |  | decreasing memory disorders coused by Scopalomine
3 | Cc1ccc2c(c1)[C@@H]1CN(C)CCC[C@@H]1N2CCc1ccc(C)nc1.Cl.Cl.Cl (relative stereo) [1.6.1(2)•3HCl] | −11% | 

From patent US20110039825A1, “LIGANDS OF ALPHA-ADRENOCEPTORS, DOPAMINE, HISTAMINE, IMIDAZOLINE AND SEROTONIN RECEPTORS AND THEIR USE” (Alla Chem, LLC, priority 2007, published 2011)
